Assay results reported in EP1464341B1, “Ubiquinone-containing water-soluble formulation for ophthalmic use” (Visufarma S.p.A, priority 2003, dated 2004).
Where “and” joins values, the source holds several entries; their conditions need not be identical. Equal values may be shown once.

Assays:
[1] = Pharmacokinetic incorporation of the hydrophilic collyrium in rabbit cornea, retina and plasma (CoQ10 concentration); assay type: in vivo; settings: for RETINA Q10-treated, Average / RETINA Q10-treated: retina of treated eye
Description: Assessment of the pharmacokinetic activity of incorporation of the hydrophilic collyrium in rabbit cornea, retina and plasma.
a) The hydrophilic collyrium was assayed on a first lot of three rabbits by instilling Coenzyme Q10 in the right eye and an equivalent excipient free from Q10 and vitamin E TPQS in the contralateral (basal) eye. At + 15 min from the collyrium instillation, CoQ10 concentration in the treated eye and in the other (basal) eye was analysed. The analysis was performed on the retina, the cornea and the plasma of the two eyes.
b) .A second lot of six rabbits was subjected to an analogous assay in which the waiting time was prolonged up to 30 min.

[2] = cited from earlier work
[3] = test system: superoxide anion generated by human PMNs (polymorphonucleates); settings: human PMNs suitably stimulated; Ferrocytochrome C method
[4] = treated minus basal, 15 min, average of 3 rabbits
[5] = treated vs basal, 15 min, average of 3 rabbits

COC1=C(OC)C(=O)C(C/C=C(\C)CC/C=C(\C)CC/C=C(\C)CC/C=C(\C)CC/C=C(\C)CC/C=C(\C)CC/C=C(\C)CC/C=C(\C)CC/C=C(\C)CCC=C(C)C)=C(C)C1=O [Formulation Q10, Ubiquinone Q10]
incorporation in the cornea ([1]; at both times considered (15 min and 30 min)): scarce
CORNEA Q10-treated, Average ([1]; cornea of treated eye, 15 min, average of 3 rabbits): 1004 pmoles/g
CORNEA Q10-treated ([1]; cornea of treated eye, 15 min, individual rabbits N. 15-17): 887 pmoles/g and 955 pmoles/g and 1170 pmoles/g
CORNEA Difference, Average ([1]; cornea, treated minus basal, 15 min, average of 3 rabbits): 74 pmol/g
CORNEA Difference ([1]; cornea, treated minus basal, 15 min, individual rabbits): -34 pmol/g and 377 pmol/g and -150 pmol/g
CORNEA %Increase, Average ([1]; cornea, treated vs basal, 15 min, average of 3 rabbits): 7%
CORNEA %Increase ([1]; cornea, treated vs basal, 15 min, individual rabbits): -3% and 65% and -11%
CORNEA %Increase, Average ([1]; cornea, treated vs basal, 30 min, average of 6 rabbits): 4%
CORNEA %Increase ([1]; cornea, treated vs basal, 30 min, individual rabbits): -17% and 16% (2×) and 24% and -7% and -16%
PLASMA Q10-treated, Average ([1]; 15 min, average of 3 rabbits): 74 pmoles/g
PLASMA Q10-treated ([1]; 15 min, individual rabbits N. 15-17): 62 pmoles/g and 83 pmoles/g and 78 pmoles/g
PLASMA Q10-treated, Average ([1]; 30 min, average of 6 rabbits): 83 pmoles/g
PLASMA Q10-treated ([1]; 30 min, individual rabbits N. 18-23): 79 pmoles/g and 105 pmoles/g and 106 pmoles/g and 53 pmoles/g and 81 pmoles/g and 73 pmoles/g
PLASMA Difference, Average [1, 4]: 10 pmol/g
PLASMA Difference ([1]; treated minus basal, 15 min, individual rabbits): 8 pmol/g and 6 pmol/g and 17 pmol/g
PLASMA Difference, Average ([1]; treated minus basal, 30 min, average of 6 rabbits): 13 pmol/g
PLASMA Difference ([1]; treated minus basal, 30 min, individual rabbits): 14 pmoles/g (2×) and 7 pmoles/g and 23 pmoles/g and 10 pmoles/g and 8 pmoles/g
PLASMA %Increase, Average [1, 5]: 16%
PLASMA %Increase ([1]; treated vs basal, 15 min, individual rabbits): 15% and 8% and 28%
PLASMA %Increase, Average ([1]; treated vs basal, 30 min, average of 6 rabbits): 18%
PLASMA %Increase ([1]; treated vs basal, 30 min, individual rabbits): 21% (2×) and 7% and 28% and 23% and 12%
RETINA Q10-treated, Average ([1]; 15 min, average of 3 rabbits): 754 pmoles/g
RETINA Q10-treated ([1]; 15 min after instillation, individual rabbits N. 15-17): 787 pmoles/g and 632 pmoles/g and 843 pmoles/g
RETINA Q10-treated, Average ([1]; second lot (30 min; head prints 15 min), average of 6 rabbits): 1084.3 pmoles/g
RETINA Q10-treated ([1]; second lot (waiting time 30 min; head prints 15 min), individual rabbits N. 18-23): 1006 pmoles/g and 1394 pmoles/g and 1037 pmoles/g and 725 pmoles/g and 975 pmoles/g and 1369 pmoles/g
RETINA Difference ([1]; treated minus basal (contralateral) eye, 15 min, individual rabbits): -82 pmol/g and 14 pmol/g and 83 pmol/g
RETINA Difference, Average [1, 4]: 5 pmol/g
RETINA Difference, Average ([1]; treated minus basal, second lot (30 min; head prints 15 min), average of 6 rabbits): 138.8 pmol/g
RETINA Difference ([1]; treated minus basal, second lot (30 min; head prints 15 min), individual rabbits): 177 pmol/g and 57 pmol/g and 106 pmol/g and 74 pmol/g and 211 pmol/g and 208 pmol/g
RETINA %Increase, Average ([1]; treated vs basal (contralateral eye), second lot (30 min; head prints 15 min), average of 6 rabbits): 15%
RETINA % Increase ([1]; treated vs basal eye, 15 min, individual rabbits): -9% and 2% and 11%
RETINA %Increase, Average [1, 5]: 1%
RETINA % Increase ([1]; treated vs basal, second lot (30 min; head prints 15 min), individual rabbits): 21% and 4% and 11% (2×) and 28% and 18%
solubility in water [2]: totally insoluble in water

d-Alpha-tocopheryl polyethylene glycol 1000-succinate [vitamin E TPGS]
scavenging action with regards to the superoxide anion [3]: scavenging action
